The source of these data is patent US20230116602A1, “MCL1 INHIBITORS AND USES THEREOF” (California Institute of Technology, priority 2019, published 2023).

Data set [1] concerns AMO-1 myeloma cell line xenograft. Put plainly: AMO-1 myeloma cell line xenograft study. The class given is in vivo. Conditions: AMO-1 xenograft, mice, IV QD for the first 5 days. As for the experimental part: FIG. 1 are the results of an AMO-1 myeloma cell line xenograft study with a compound of Formula X. Eight mice were used per group, and mice were dosed by intravenous injection (IV) daily (QD) for the first 5 days of the study with various concentrations of the compound of Formula X.
(§1) FIG. 1 are the results of an AMO-1 myeloma cell line xenograft study with a compound of Formula X and with an MCL1 inhibitor being tested in humans and available as catalog number HY-112218 on Oct. 2, 2020 (MedChemExpress LLC, New Jersey, USA). Eight mice were used per group, and mice were dosed by intravenous injection (IV) daily (QD) for the first 5 days of the study with various concentrations of the compound of Formula X or with HY-112218. The 10 mg/kg dose of HY-112218 and the 60 mg/kg dose of the compound of Formula X are about the maximum tolerated dose for mice and represent a theoretical efficacious dose for humans.
Xenograft models of human cancer cell lines were established in six-week-old CD-1 athymic nude mice by subcutaneous injection of 1.0-3.0×10^7 cells with or without 50% matrigel. […] Tumor xenografts were measured with calipers three times per week, and tumor volume (in mm^3) was determined by multiplying height×width×length. […] Data were analyzed using StudyLog software from StudyDirector (San Francisco, Calif.).

Data set [2] in a line: Maximum tolerated dose in mice. Particulars: CD-1 athymic nude, mouse, in vivo, iv. As for the experimental part:
as §1

Data set [3] concerns drug-sensitive cell lines of Table 3. Kind of data set: Cell line growth retardation assay, sensitive cohort. The class given is cell-based, Human. Particulars: for IC50: Homo sapiens, 144 h, arithmetic mean of IC50s over the sensitive cohort of Table 3, 6 days growth, read-out: AvgSen IC50; for Fold Diff: average IC50 of resistant cohort divided by average IC50 of sensitive cohort. The method in brief:
(§2)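 Cell lines classed as MCL1-inhibition sensitive or resistant were seeded, rested 24 h, then exposed to 10–0.0032 μM compound for 6 days. Cells were counted by imaging; growth inhibition was the ratio of population doublings with vs without compound from a pre-treatment baseline. IC50 from curve fits, averaged per cohort.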

Data set [4] has as its system drug-resistant cell lines of Table 3. Kind of data set: Cell line growth retardation assay, resistant cohort. The class given is cell-based, Human. Conditions: Homo sapiens, 144 h; arithmetic mean of IC50s over the resistant cohort of Table 3, 6 days growth; read-out: AvgRes IC50. The method in brief: as §2
For another data set, the target named is MCL1 (Homo sapiens, UniProt Q07820). Kind of data set: MCL1 affinity assay (competition binding, qPCR readout). Particulars: recombinant MCL1, 11-point 3-fold dilution series. The method in brief: (§3)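 Competition binding: DNA-tagged recombinant protein (E. coli BL21-derived or HEK-293), biotinylated peptide ligand-loaded streptavidin beads and compound incubated 1 hour at room temperature, 0.9% DMSO final. Bound protein eluted with 0.5 μM non-biotinylated ligand and quantified by qPCR; Kd from 11-point 3-fold dilution series.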
Chain of MCL1 (Q07820 whole entry): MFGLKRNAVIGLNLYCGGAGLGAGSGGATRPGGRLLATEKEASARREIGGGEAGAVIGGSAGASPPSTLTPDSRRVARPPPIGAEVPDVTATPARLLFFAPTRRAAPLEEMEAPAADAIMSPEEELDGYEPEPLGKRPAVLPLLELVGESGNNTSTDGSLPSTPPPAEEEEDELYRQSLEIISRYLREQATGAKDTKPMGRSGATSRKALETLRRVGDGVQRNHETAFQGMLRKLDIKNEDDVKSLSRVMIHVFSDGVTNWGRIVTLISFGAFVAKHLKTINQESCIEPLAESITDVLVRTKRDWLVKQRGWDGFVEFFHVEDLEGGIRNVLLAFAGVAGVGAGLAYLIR

The next data set concerns the target BCL2 (Homo sapiens, UniProt P10415). Put plainly: BCL2 affinity assay (competition binding, qPCR readout). Conditions: recombinant BCL2, 11-point 3-fold dilution series. The method in brief:
as §3

For the next data set, the target named is BCLXL (Homo sapiens, UniProt Q07817). Kind of data set: BCLXL affinity assay (competition binding, qPCR readout). Conditions: recombinant BCLXL, 11-point 3-fold dilution series. Put shortly: as §3
Chain of BCLXL (Q07817 whole entry): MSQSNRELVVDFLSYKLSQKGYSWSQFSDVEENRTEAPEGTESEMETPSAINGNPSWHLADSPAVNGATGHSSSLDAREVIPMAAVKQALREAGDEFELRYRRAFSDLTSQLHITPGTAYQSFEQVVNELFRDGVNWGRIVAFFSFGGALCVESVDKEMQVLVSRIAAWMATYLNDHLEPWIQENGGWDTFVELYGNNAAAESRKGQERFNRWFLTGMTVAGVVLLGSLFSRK

Some results are limits rather than exact numbers.

Chain of BCL2 (P10415 whole entry): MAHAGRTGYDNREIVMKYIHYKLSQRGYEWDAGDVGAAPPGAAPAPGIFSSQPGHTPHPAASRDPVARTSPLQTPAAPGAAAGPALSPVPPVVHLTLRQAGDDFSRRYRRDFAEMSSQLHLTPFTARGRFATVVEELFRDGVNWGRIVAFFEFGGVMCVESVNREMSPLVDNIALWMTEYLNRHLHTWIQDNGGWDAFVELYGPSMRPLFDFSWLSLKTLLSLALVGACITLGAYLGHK

`COc1ccccc1-c1nccc(COc2ccccc2C[C@@H](Oc2ncnc3sc(-c4ccc(F)cc4)c(-c4ccc(OCCN5CCN(C)CC5)c(Cl)c4C)c23)C(=O)O)n1` [HY-112218, (R)-2-((5-(3-chloro-2-methyl-4-(2-(4-methylpiperazin-1-yl)ethoxy)phenyl)-6-(4-fluorophenyl)thieno[2,3-d]pyrimidin-4-yl)oxy)-3-(2-((2-(2-methoxyphenyl)pyrimidin-4-yl)methoxy)phenyl)propanoic acid]: the “day of study at which treated tumors resumed growth” value in data set [1] was approximately 21 days. In data set [2], this compound came in with an MTD at 5 days of approximately 10 mg/kg.

Regarding `COc1cccc(-c2ncc3snc(O[C@H](Cc4ccccc4OCc4ccnc(-c5ccccc5OC)n4)C(=O)O)c3c2-c2ccc(O)c(Cl)c2C)c1` (atropisomer, axis not shown) [Compound 41], the values for the IC50 in data set [3] and in data set [4] were 1 to 5 µM and more than 5 µM, respectively. Besides, the “Fold Diff” value in data set [3] is “− (“−” represents a fold difference less than 10)”. For the same compound, the results for the Kd at MCL1, on BCL2 and at BCLXL were not above 0.1 µM, more than 1.5 µM and more than 1.5 µM, respectively.

Take `Cc1c(-c2c(Cl)ncc3snc(O[C@H](Cc4ccccc4OCc4ccnn4CC(F)(F)F)C(=O)O)c23)ccc(OCCN2CCN(C)CC2)c1Cl` (single isomer, unassigned) [Compound 3]: the IC50 in data set [3] and in data set [4] was more than 5 µM in each case. Moreover, the “Fold Diff” value in data set [3] is “− (“−” represents a fold difference less than 10)”. In addition, the Kd on MCL1, on BCL2 and on BCLXL was more than 1.5 µM throughout.

Take `Cc1c(-c2c(-c3ccccn3)ncc3snc(O[C@H](Cc4ccccc4OCc4ccnn4CC(F)(F)F)C(=O)O)c23)ccc(OCCN2CCN(C)CC2)c1Cl` (atropisomer, axis not shown) [Compound 52]: the IC50 in data set [3] and in data set [4] was more than 5 µM throughout. Moreover, in data set [3], the “Fold Diff” value is “− (“−” represents a fold difference less than 10)”. Besides, the Kd on MCL1 was 0.501 to 1.5 µM; at BCL2 it was more than 1.5 µM; on BCLXL it was more than 1.5 µM.

As to `Cc1c(-c2c(C3CC3)ncc3snc(O[C@H](Cc4ccccc4OCc4ccnn4CC(F)(F)F)C(=O)O)c23)ccc(OCCN2CCN(C)CC2)c1Cl` (atropisomer, axis not shown) [Compound 30], the IC50 is 1 to 5 µM in data set [3] and more than 5 µM in data set [4]. Further, in data set [3], the “Fold Diff” value was “− (“−” represents a fold difference less than 10)”. The Kd at MCL1 was not above 0.1 µM; on BCL2, more than 1.5 µM; on BCLXL, more than 1.5 µM.

For `Cc1c(-c2c(-c3cccc4[nH]c(C(F)(F)F)cc34)ncc3snc(O[C@H](Cc4ccccc4OCc4ccnn4CC(F)(F)F)C(=O)O)c23)ccc(OCCN2CCN(C)CC2)c1Cl` (atropisomer, axis not shown) [Compound 16], the IC50 in data set [3] and in data set [4] was more than 5 µM in each case. Besides, in data set [3], the “Fold Diff” value is listed as “− (“−” represents a fold difference less than 10)”. Also, the Kd on MCL1, on BCL2 and at BCLXL was more than 1.5 µM throughout.

Take `Cc1c(-c2c(C3CCC3)ncc3snc(O[C@H](Cc4ccccc4OCc4ccnn4CC(F)(F)F)C(=O)O)c23)ccc(OCCN2CCN(C)CC2)c1Cl` (atropisomer, axis not shown) [Compound 29]: the values for the IC50 in data set [3] and in data set [4] were not above 1 µM and more than 5 µM, respectively. In addition, the “Fold Diff” value in data set [3] is reported as “+ (“+” represents a fold difference of 10 or more)”. Besides, the Kd on MCL1 was not above 0.1 µM; on BCL2 it was more than 1.5 µM; on BCLXL, more than 1.5 µM.

For the compound `Cc1c(-c2c(-c3cccc(F)c3)ncc3snc(O[C@H](Cc4ccccc4OCc4ccnn4CC(F)(F)F)C(=O)O)c23)ccc(OCCN2CCN(C)CC2)c1Cl` (atropisomer, axis not shown) [Compound 26], the figures for the IC50 in data set [3] and in data set [4] were not above 1 µM and more than 5 µM, respectively. For the same compound, in data set [3], the “Fold Diff” value was “+ (“+” represents a fold difference of 10 or more)”. For the same compound, the Kd is 0.101 to 0.5 µM at MCL1, more than 1.5 µM at BCL2 and more than 1.5 µM at BCLXL.

On to `Cc1cc2cccc(-c3ncc4snc(O[C@H](Cc5ccccc5OCc5ccnn5CC(F)(F)F)C(=O)O)c4c3-c3ccc(OCCN4CCN(C)CC4)c(Cl)c3C)c2[nH]1` (atropisomer, axis not shown) [Compound 17], for which the IC50 in data set [3] and in data set [4] was more than 5 µM each time. In addition, in data set [3], the “Fold Diff” value is reported as “− (“−” represents a fold difference less than 10)”. Also, the Kd on MCL1 is 0.501 to 1.5 µM; on BCL2, more than 1.5 µM; at BCLXL, more than 1.5 µM.

For `COc1cc(-c2nccc(COc3ccccc3C[C@@H](Oc3nsc4cnc(-c5cccc(F)c5)c(-c5ccc(OCCN6CCN(C)CC6)c(Cl)c5C)c34)C(=O)O)n2)ccn1` (atropisomer, axis not shown) [Compound 71], the IC50 is not above 1 µM in data set [3] and more than 5 µM in data set [4]. Further, the “Fold Diff” value in data set [3] is “+ (“+” represents a fold difference of 10 or more)”. Also, the Kd on MCL1 is 0.101 to 0.5 µM; on BCL2 it was more than 1.5 µM; at BCLXL it was more than 1.5 µM.

Consider `COc1cccc(-c2ncc3snc(O[C@H](Cc4ccccc4OCc4ccnc(-c5ccccc5OC)n4)C(=O)O)c3c2-c2ccc(OCCN(C)C)c(Cl)c2C)c1` (atropisomer, axis not shown) [Compound 46], for which the IC50 is not above 1 µM in data set [3] and more than 5 µM in data set [4]. The “Fold Diff” value in data set [3] was “+ (“+” represents a fold difference of 10 or more)”. Moreover, the Kd was not above 0.1 µM at MCL1, more than 1.5 µM at BCL2 and more than 1.5 µM on BCLXL.
